# Laboratory results from publication PMC9150124, “Design of a Potent, Selective, and Brain-Penetrant Inhibitor of Wnt-Deactivating Enzyme Notum by Optimization of a Crystallographic Fragment Hit” (Journal of Medicinal Chemistry, 2022).
# Read-outs that look alike come from different tables or passages of the source.
# What was measured:
# [1] = biological target: kinase named in conditions (Homo sapiens, UniProt O00329); assay: SelectScreen kinase profiling, SSBK Adapta SP Technology; format: biochemical; conditions: PIK3CD/PIK3R1 (p110 delta/p85 alpha), 10 μM
# [2] = biological target: kinase named in conditions (Homo sapiens, UniProt O00443); assay: as above; format: biochemical; conditions: PIK3C2A (PI3K-C2 alpha), 10 μM
# [3] = biological target: kinase named in conditions (Homo sapiens, UniProt O14986); assay: as above; format: biochemical; conditions: PIP5K1B, 10 μM
# kinase named in conditions (Homo sapiens, UniProt O14986), sequence (O14986 whole entry): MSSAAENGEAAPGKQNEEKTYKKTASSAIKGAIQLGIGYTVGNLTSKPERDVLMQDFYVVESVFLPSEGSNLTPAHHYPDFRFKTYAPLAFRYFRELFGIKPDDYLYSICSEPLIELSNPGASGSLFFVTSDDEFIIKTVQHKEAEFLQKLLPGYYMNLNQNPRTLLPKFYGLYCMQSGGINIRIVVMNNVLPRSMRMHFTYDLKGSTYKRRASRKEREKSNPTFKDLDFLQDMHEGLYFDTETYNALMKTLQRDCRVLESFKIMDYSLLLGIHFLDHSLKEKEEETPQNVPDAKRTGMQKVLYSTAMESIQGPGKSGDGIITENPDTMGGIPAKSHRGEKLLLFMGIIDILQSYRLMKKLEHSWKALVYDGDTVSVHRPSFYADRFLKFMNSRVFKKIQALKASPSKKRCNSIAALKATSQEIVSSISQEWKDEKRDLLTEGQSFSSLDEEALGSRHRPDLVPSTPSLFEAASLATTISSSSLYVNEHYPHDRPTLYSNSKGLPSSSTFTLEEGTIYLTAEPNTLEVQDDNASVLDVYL
# [4] = biological target: kinase named in conditions (Homo sapiens, UniProt O15111); assay: as above; format: biochemical; conditions: CHUK (IKK alpha), 10 μM
# [5] = biological target: kinase named in conditions (Homo sapiens, UniProt O60285); assay: as above; format: biochemical; conditions: NUAK1 (ARK5), 10 μM
# kinase named in conditions (Homo sapiens, UniProt O60285), sequence (O60285 whole entry): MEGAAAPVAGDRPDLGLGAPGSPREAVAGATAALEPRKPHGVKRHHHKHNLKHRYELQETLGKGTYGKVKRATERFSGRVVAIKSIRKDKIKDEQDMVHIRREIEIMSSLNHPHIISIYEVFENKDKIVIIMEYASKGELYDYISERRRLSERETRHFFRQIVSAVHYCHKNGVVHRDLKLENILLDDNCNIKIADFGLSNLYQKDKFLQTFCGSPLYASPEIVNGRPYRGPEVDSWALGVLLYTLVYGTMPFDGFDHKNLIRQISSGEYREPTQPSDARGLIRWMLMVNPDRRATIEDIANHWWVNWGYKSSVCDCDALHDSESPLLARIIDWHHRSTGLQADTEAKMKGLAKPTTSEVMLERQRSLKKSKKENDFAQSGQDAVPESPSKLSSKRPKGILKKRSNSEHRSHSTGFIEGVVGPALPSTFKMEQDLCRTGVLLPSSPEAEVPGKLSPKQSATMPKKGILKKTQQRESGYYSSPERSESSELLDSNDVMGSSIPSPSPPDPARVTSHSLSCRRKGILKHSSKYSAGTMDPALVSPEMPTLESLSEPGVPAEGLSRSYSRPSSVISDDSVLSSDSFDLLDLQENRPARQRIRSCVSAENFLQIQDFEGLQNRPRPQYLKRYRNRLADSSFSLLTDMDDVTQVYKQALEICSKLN
# [6] = biological target: kinase named in conditions (Homo sapiens, UniProt O60331); assay: as above; format: biochemical; conditions: PIP5K1C, 10 μM
# [7] = biological target: kinase named in conditions (Homo sapiens, UniProt O75747); assay: as above; format: biochemical; conditions: PIK3C2G (PI3K-C2 gamma), 10 μM
# [8] = biological target: kinase named in conditions (Homo sapiens, UniProt P11802); assay: as above; format: biochemical
# [9] = biological target: kinase named in conditions (Homo sapiens, UniProt P42336); assay: as above; format: biochemical; conditions: 10 μM
# [10] = biological target: kinase named in conditions (Homo sapiens, UniProt P42338); assay: as above; format: biochemical; conditions: 10 μM
# [11] = biological target: kinase named in conditions (Homo sapiens, UniProt P42356); assay: as above; format: biochemical; conditions: PI4KA (PI4K alpha), 10 μM
# [12] = biological target: kinase named in conditions (Homo sapiens, UniProt P48426); assay: as above; format: biochemical; conditions: PIP4K2A, 10 μM
# kinase named in conditions (Homo sapiens, UniProt P48426), sequence (P48426 whole entry): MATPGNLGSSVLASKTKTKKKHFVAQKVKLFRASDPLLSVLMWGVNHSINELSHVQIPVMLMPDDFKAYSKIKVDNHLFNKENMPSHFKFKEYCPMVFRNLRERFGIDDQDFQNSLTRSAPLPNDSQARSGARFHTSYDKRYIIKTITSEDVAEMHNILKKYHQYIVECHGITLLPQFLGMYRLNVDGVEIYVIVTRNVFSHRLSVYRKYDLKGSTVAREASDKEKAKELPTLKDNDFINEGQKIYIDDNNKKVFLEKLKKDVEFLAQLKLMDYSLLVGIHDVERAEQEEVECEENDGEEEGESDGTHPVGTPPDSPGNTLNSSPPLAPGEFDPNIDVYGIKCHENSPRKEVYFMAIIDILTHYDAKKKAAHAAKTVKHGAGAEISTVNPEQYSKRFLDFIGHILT
# [13] = biological target: kinase named in conditions (Homo sapiens, UniProt P48736); assay: as above; format: biochemical; conditions: PIK3CG (p110 gamma), 10 μM
# kinase named in conditions (Homo sapiens, UniProt P48736), sequence (P48736 whole entry): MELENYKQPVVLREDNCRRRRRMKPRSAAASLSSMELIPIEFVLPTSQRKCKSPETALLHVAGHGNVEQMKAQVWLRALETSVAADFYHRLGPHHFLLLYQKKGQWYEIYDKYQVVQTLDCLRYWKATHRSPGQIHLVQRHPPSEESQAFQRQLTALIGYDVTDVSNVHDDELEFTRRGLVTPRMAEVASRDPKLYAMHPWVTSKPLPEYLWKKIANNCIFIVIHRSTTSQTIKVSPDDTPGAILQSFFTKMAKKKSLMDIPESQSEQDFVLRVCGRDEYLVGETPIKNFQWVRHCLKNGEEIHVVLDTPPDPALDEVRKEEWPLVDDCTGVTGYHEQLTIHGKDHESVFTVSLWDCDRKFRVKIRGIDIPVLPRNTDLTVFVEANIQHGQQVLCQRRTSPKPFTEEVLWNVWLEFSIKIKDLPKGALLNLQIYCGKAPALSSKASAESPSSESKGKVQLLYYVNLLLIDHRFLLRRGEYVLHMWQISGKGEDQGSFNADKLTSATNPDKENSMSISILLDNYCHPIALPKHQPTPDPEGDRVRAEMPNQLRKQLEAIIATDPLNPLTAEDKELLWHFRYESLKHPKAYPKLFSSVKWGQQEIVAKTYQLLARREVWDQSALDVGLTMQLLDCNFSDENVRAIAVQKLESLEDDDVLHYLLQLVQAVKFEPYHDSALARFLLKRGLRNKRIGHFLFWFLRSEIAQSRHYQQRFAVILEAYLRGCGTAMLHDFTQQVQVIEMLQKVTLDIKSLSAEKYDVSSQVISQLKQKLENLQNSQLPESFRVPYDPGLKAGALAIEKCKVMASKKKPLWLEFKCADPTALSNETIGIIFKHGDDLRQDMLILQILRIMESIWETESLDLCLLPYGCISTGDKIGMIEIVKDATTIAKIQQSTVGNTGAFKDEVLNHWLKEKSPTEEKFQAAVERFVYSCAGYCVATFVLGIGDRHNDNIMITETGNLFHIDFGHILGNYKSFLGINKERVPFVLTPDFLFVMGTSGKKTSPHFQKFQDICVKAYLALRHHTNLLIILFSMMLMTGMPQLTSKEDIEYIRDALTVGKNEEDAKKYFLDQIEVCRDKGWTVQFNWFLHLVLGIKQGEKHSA
# [14] = biological target: kinase named in conditions (Homo sapiens, UniProt Q00534); assay: as above; format: biochemical; conditions: CDK6/cyclin D1, 10 μM
# [15] = biological target: kinase named in conditions (Homo sapiens, UniProt Q14012); assay: as above; format: biochemical; conditions: CAMK1 (CaMK1), 10 μM
# [16] = biological target: kinase named in conditions (Homo sapiens, UniProt Q8NEB9); assay: as above; format: biochemical; conditions: PIK3C3 (hVPS34), 10 μM
# kinase named in conditions (Homo sapiens, UniProt Q8NEB9), sequence (Q8NEB9 whole entry): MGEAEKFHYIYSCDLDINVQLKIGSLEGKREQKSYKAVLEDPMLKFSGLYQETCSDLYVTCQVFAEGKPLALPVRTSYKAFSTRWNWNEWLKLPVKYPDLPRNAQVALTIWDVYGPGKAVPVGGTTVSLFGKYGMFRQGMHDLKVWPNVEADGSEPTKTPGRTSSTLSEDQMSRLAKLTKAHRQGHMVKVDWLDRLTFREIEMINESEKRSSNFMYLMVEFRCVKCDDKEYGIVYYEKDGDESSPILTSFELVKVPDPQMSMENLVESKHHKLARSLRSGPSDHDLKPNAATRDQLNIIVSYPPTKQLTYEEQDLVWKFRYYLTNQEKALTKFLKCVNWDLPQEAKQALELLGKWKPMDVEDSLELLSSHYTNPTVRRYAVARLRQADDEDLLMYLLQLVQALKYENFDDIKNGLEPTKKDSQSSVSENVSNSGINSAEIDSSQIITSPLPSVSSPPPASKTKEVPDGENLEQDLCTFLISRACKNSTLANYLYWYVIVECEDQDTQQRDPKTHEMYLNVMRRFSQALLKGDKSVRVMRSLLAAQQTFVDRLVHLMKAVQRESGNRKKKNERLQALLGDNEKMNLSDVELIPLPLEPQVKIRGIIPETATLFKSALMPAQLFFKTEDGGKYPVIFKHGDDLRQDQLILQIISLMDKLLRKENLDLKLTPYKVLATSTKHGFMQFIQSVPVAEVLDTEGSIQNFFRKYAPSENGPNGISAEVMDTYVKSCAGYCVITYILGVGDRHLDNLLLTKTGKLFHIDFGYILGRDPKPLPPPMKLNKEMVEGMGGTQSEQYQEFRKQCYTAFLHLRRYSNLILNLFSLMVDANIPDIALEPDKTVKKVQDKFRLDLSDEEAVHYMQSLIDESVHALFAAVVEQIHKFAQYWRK
# [17] = biological target: kinase named in conditions (Homo sapiens, UniProt Q8TCG2); assay: as above; format: biochemical; conditions: PI4K2B (PI4K2 beta), 10 μM
# kinase named in conditions (Homo sapiens, UniProt Q8TCG2), sequence (Q8TCG2 whole entry): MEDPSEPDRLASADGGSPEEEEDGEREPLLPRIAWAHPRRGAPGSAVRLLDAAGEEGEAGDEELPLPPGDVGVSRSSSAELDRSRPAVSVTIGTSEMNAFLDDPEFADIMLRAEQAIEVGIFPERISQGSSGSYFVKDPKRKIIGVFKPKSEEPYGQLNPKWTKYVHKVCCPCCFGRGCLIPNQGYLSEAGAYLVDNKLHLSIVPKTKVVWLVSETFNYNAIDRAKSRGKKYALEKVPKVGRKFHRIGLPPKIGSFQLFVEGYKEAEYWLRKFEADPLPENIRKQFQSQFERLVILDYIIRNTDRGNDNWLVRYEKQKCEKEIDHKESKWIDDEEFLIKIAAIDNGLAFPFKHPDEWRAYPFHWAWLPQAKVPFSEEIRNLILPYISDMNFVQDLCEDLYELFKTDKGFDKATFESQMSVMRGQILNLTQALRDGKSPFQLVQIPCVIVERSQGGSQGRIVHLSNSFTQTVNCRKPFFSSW
# [18] = biological target: kinase named in conditions (Homo sapiens, UniProt Q9UBF8); assay: as above; format: biochemical; conditions: PI4KB (PI4K beta), 10 μM
# kinase named in conditions (Homo sapiens, UniProt Q9UBF8), sequence (Q9UBF8 whole entry): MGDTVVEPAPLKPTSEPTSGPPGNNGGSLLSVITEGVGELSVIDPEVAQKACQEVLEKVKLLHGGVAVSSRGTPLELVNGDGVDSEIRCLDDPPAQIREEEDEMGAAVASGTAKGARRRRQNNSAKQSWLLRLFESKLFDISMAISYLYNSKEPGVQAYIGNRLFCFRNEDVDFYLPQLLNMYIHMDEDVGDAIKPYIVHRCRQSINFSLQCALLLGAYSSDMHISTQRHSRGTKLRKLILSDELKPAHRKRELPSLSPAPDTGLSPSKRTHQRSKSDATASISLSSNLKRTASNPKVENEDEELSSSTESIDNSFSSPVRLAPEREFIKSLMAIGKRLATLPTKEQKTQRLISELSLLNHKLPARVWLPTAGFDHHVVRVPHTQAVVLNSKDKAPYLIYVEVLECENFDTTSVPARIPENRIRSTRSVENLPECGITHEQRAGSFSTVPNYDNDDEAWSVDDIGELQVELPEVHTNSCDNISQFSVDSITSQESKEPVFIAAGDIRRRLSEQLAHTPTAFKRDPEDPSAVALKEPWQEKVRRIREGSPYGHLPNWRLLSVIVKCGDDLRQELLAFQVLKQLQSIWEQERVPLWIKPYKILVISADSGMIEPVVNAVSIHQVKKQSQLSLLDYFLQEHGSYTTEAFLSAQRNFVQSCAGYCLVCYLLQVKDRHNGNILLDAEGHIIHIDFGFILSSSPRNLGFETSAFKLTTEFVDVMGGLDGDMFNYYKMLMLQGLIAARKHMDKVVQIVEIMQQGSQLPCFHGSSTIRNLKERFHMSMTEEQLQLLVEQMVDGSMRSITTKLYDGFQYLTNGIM
# [19] = Stability in human liver microsomes; format: in vitro ADME; conditions: for half-life: human, liver microsomes, read-out: HLM Stability t1/2
# CYP1A2 = biological target: T1, CYP1A2 (Homo sapiens, UniProt P05177); assay: CYP450 inhibition in HLM
# T1 sequence (P05177 1-516): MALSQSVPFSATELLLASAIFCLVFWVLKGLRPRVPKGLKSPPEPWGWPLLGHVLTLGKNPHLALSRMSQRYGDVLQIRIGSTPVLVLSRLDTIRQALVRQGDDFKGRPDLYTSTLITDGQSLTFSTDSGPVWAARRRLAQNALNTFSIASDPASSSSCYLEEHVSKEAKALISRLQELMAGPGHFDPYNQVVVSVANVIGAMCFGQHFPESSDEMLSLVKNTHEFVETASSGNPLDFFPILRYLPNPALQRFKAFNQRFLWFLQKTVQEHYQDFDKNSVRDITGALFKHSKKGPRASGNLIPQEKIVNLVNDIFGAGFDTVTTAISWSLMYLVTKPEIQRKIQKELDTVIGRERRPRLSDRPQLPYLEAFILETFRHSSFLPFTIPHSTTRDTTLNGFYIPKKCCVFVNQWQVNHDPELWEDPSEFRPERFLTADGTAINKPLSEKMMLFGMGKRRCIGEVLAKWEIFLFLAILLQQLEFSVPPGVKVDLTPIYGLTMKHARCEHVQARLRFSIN
# CYP2B6 = biological target: T2, CYP2B6 (Homo sapiens, UniProt P20813); assay: CYP450 inhibition in HLM
# T2 sequence (P20813 1-491): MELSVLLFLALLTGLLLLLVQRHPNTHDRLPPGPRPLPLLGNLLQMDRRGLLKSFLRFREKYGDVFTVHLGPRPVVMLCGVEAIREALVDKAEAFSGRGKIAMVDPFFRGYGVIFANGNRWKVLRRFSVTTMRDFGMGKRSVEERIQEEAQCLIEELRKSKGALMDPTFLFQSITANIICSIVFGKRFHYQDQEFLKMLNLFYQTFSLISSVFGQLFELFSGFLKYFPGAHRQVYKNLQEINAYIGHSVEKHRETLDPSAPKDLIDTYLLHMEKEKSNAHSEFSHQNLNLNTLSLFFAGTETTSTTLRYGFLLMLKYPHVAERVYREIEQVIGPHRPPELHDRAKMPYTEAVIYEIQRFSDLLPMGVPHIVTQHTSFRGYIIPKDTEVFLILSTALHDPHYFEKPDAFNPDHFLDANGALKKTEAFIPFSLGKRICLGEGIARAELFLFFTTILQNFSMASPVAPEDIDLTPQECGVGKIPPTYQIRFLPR
# [20] = Stability in dog liver microsomes
# [21] = Metabolic stability in human hepatocytes
structure (smiles),measurement,setting,value
"FC(F)(F)c1c(Cl)ccc(-n2ccnn2)c1Cl [8l, 1-(2,4-Dichloro-3-(trifluoromethyl)phenyl)-1H-1,2,3-triazole]",inhibition at 10 µM,[1],-25%
same,inhibition at 10 µM,[2],-10%
same,inhibition at 10 µM,[3],1%
same,inhibition at 10 µM,[4],4%
same,inhibition at 10 µM,[5],-3%
same,inhibition at 10 µM,[6],-2%
same,inhibition at 10 µM,[7],11%
same,inhibition at 10 µM,"[8]; CDK4/cyclin D1, 10 μM",6%
same,inhibition at 10 µM,"[8]; CDK4/cyclin D3, 10 μM",4%
same,inhibition at 10 µM,[9]; PIK3CA/PIK3R1 (p110 alpha/p85 alpha),-6%
same,inhibition at 10 µM,[9]; PIK3CA/PIK3R3 (p110 alpha/p55 gamma),0%
same,inhibition at 10 µM,[10]; PIK3CB/PIK3R1 (p110 beta/p85 alpha),1%
same,inhibition at 10 µM,[10]; PIK3CB/PIK3R2 (p110 beta/p85 beta),15%
same,inhibition at 10 µM,[11],-4%
same,inhibition at 10 µM,[12],-1%
same,inhibition at 10 µM,[13],-15%
same,inhibition at 10 µM,[14],-3%
same,inhibition at 10 µM,[15],11%
same,inhibition at 10 µM,[16],-5%
same,inhibition at 10 µM,[17],16%
same,inhibition at 10 µM,[18],1%
same,HLM Cli,[19],1.5 μL/min/mg protein
same,"Liver microsome stability Cli, HLM",[19]; additional study (Table 5),< 9.6 μL/min/mg protein
same,half-life,[19]; Table S4,2 h
same,half-life,[19]; Table S8,> 2.42 h
same,IC50,"CYP1A2; read-out: CYP inhibition IC50, 1A2, HLM",0.96 µM
same,IC50,"CYP1A2; read-out: IC50 CYP1A2/Phenacetin, (+)NADPH pre-incubation",0.963 µM
same,IC50,"CYP1A2; read-out: IC50 CYP1A2/Phenacetin, (-)NADPH pre-incubation",0.964 µM
same,IC50,CYP2B6,3.15 µM
same,IC50,"CYP2B6; read-out: CYP inhibition IC50, 2B6, HLM",5.2 µM
same,IC50,"CYP2B6; read-out: IC50 CYP2B6/Bupropion, (+)NADPH pre-incubation",5.21 µM
same,"Liver microsome stability Cli, DLM",[20],10.8 μL/min/mg protein
same,half-life,"[20]; dog, liver microsomes",2.14 h
same,half-life,[21],> 3.61 h
same,hepatocyte CLint,[21],< 6.4 µL/min/1e6 cells
